Experiments:
[1] = Autoclave test of transference of the chemical from liquid water phase to steam phase at 200° C. (gas chromatography); type: physicochemical; details: autoclave 200° C.; for Conc. of chemical in water / Conc. of chemical in steam: 200 mg/liter aqueous solution, pH 11.5 with sodium hydroxide; for Conc. of chemical in water: liquid phase sample; for Conc. of chemical in steam: steam phase sample
Protocol: Each 50 ml of samples were taken from the steam phase and from the liquid phase directly after the temperature had reached at 200° C., which were analyzed for the concentration of the chemical on a gas chromatography. The ratio of the concentration of chemical in the steam phase versus the concentration of chemical in the liquid phase was calculated.

[2] = Removal of dissolved oxygen by potassium erysorbate at 60° C., 10 minutes; details: 100 mg potassium erysorbate per liter, pH of test soln. as in row (6.5-10.5)
Protocol: In a constant temperature bath held at 60° C., one liter of deionized water of a pH of 6.5 was stirred for one hour so as to saturate it with atmospheric oxygen and the oxygen concentration was measured by a dissolved oxygen meter (MOCA 3600 of the firm Orbisphere Laboratories). 100 mg of potassium erysorbate were added to the water and the mixture was agitated sufficiently, before the solution was poured into a 200 ml incubation bottle to fill it completely therewith, whereupon a closure stopper was fitted into the bottle so as to exclude any rest of gas space therein and the bottle was returned to the constant temperature bath of 60° C. to subject the solution to reaction for 10 minutes. After 10 minutes, the bottle was taken out of the bath and the dissolved oxygen concentration therein was detected by the dissolved oxygen meter. The rate of removal of dissolved oxygen is calculated from the proportion of the dissolved oxygen concentration after the addition of potassium erysorbate versus the dissolved oxygen concentration before the addition of potassium erysorbate (Comparative Example 15).
Test solutions were prepared from each one liter of deionized water by adjusting the pH thereof at 7.5, 9.0 and 10.5, respectively, by adding sodium hydroxide thereto as alkali reagent. […]

SMILES | Conc. of chemical in water [1] [µg/mL] | Conc. of chemical in steam [1] [µg/mL] | Conc. ratio Cs/Cw (concentration in the steam phase/concentration in liquid water phase) ([1]; pH 11.5) | Transference from the liquid water phase to the steam phase [1] | Converted into gluconic acid (with some decomposition into other compounds) ([1]; liquid water phase, pH 11.5) | Rate of O2 remov. [2] [%]
CCCCCCC1CCC(=O)O1 (stereo not drawn) [Example 2, γ-decalactone] | 187 | 120 | 0.64 | – | – | –
CCCCCC1CCC(=O)O1 (stereo not drawn) [Example 1, γ-nonalactone] | 188 | 207 | 1.10 | – | – | –
O=C1O[C@H]([C@H](O)CO)C([O-])=C1O.[K+] [compound 15, potassium erysorbate] | – | – | – | – | – | 30.1

Further lines, with some results ahead:

Conc. of chemical in water [1] [µg/mL] | Conc. of chemical in steam [1] [µg/mL] | Conc. ratio Cs/Cw (concentration in the steam phase/concentration in liquid water phase) ([1]; pH 11.5) | Transference from the liquid water phase to the steam phase [1] | SMILES | Converted into gluconic acid (with some decomposition into other compounds) ([1]; liquid water phase, pH 11.5) | Rate of O2 remov. [2] [%]
<1 | <1 | <0.01 | almost no transference | O=C1O[C@H](CO)[C@@H](O)[C@H](O)[C@H]1O [compound 1, glucono-δ-lactone, reference compound] | *2) Converted into 173 mg/l of gluconic acid with some decomposition into other compounds. | –
186 | 453 | 2.44 | – | CC=Cc1ccc(O)c(OC)c1 [Example 5, Isoeugenol] | – | –
184 | 418 | 2.27 | – | C=CCc1ccc(O)c(OC)c1 [Example 4, Eugenol] | – | –

Source: patent US6368552B1, “Water treating agent and water treating method” (Kurita Water Industries Ltd., priority 1999, dated 2002)
